Tests used:
Assay in all cases: relative viability (nuclei count vs DMSO), 5 days (fraction); higher = more cells survive
[1] = compound: CN(C)C[C@@H]1CCn2cc(c3ccccc32)C2=C(C(=O)NC2=O)c2cn(c3ccccc23)CCO1 [Ruboxistaurin] + Cc1cc(Nc2cc(N3CCN(C)CC3)nc(Sc3ccc(NC(=O)C4CC4)cc3)n2)n[nH]1 [Tozasertib] (partner 0.1 µM)
In short: (§1)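 Relative viability is defined as nuclei in treated wells over nuclei in vehicle wells. Duplicate plates were run and medians reported. Lung cancer cell lines in 1536-well plates were dosed by pin tool one day after seeding, with one drug or with a fixed anchor-drug dose plus five library-drug doses (not always all listed) in √10 steps, and nuclei were counted after 5 days.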

[2] = compound: CN(C)C[C@@H]1CCn2cc(c3ccccc32)C2=C(C(=O)NC2=O)c2cn(c3ccccc23)CCO1 [Ruboxistaurin] + Nc1nc2[nH]cc(CCc3ccc(C(=O)N[C@@H](CCC(=O)O)C(=O)O)cc3)c2c(=O)[nH]1 [Pemetrexed] (partner 0.2 µM)
In short: as §1

[3] = compound: CN(C)C[C@@H]1CCn2cc(c3ccccc32)C2=C(C(=O)NC2=O)c2cn(c3ccccc23)CCO1 [Ruboxistaurin] + CC(C)C[C@H](NC(=O)[C@H](Cc1ccccc1)NC(=O)c1cnccn1)B(O)O [Bortezomib] (partner 0.002 µM)
In short: as §1

[4] = compound: CN(C)C[C@@H]1CCn2cc(c3ccccc32)C2=C(C(=O)NC2=O)c2cn(c3ccccc23)CCO1 [Ruboxistaurin] + CC(=O)c1c(C)c2cnc(Nc3ccc(N4CCNCC4)cn3)nc2n(C2CCCC2)c1=O [Palbociclib] (partner 0.5 µM)
In short: as §1

Ruboxistaurin + OSI-027 = compound: CN(C)C[C@@H]1CCn2cc(c3ccccc32)C2=C(C(=O)NC2=O)c2cn(c3ccccc23)CCO1 [Ruboxistaurin] + COc1cccc2cc(-c3nc([C@H]4CC[C@H](C(=O)O)CC4)n4ncnc(N)c34)[nH]c12 [OSI-027] (partner 0.5 µM)
In short: as §1

Cell Line	relative viability ([1]; first compound 0.08 µM)	relative viability ([1]; first compound 0.8 µM)	relative viability ([1]; first compound 2.53 µM)	relative viability ([1]; first compound 8 µM)	relative viability ([2]; first compound 0.08 µM)	relative viability ([2]; first compound 0.8 µM)	relative viability ([2]; first compound 2.53 µM)	relative viability ([2]; first compound 8 µM)	relative viability ([3]; first compound 0.08 µM)	relative viability ([3]; first compound 0.8 µM)	relative viability ([3]; first compound 2.53 µM)	relative viability ([3]; first compound 8 µM)	relative viability ([4]; first compound 0.08 µM)	relative viability ([4]; first compound 0.8 µM)	relative viability ([4]; first compound 2.53 µM)	relative viability ([4]; first compound 8 µM)	relative viability (Ruboxistaurin + OSI-027; first compound 0.08 µM)	relative viability (Ruboxistaurin + OSI-027; first compound 0.8 µM)	relative viability (Ruboxistaurin + OSI-027; first compound 2.53 µM)	relative viability (Ruboxistaurin + OSI-027; first compound 8 µM)
NCI-H838	0.28	0.246	0.287	0.292	0.248	0.222	0.222	0.225	0.876	0.772	1.09	0.618	0.234	0.19	0.215	0.213	0.4	0.33	0.301	0.313
NCI-H3122	0.426	0.43	0.426	0.334	0.191	0.201	0.191	0.187	1.07	0.953	1.01	1.1	0.176	0.149	0.196	0.336	0.921	0.811	0.886	0.582
SK-MES-1	0.948	0.808	0.887	0.789	0.997	0.899	1.01	0.863					0.331	0.27	0.331	0.361	0.676	0.554	0.525	0.327
NCI-H1944	0.249	0.206	0.239	0.237	0.6	0.55	0.667	0.659					0.347	0.298	0.343	0.295	0.411	0.334	0.404	0.271
LK-2	0.174	0.152	0.179	0.162	0.266	0.346	0.309	0.242					0.768	0.726	0.75	0.74	0.224	0.222	0.158	0.158
PC-3 [JPC-3]	0.91	0.852	0.852	0.841	1.22	1.09	1.17	1.04	0.855	0.804	0.793	0.85	0.561	0.487	0.518	0.556	0.922	0.701	0.72	0.622
COR-L23	0.221	0.167	0.202	0.153	0.193	0.182	0.204	0.192	1.1	0.797	0.968	1.35	0.261	0.267	0.313	0.372	0.759	0.637	0.712	0.391
NCI-H1355	0.529	0.485	0.484	0.38	1.08	1	1.02	1.02	1.19	1.21	1.18	1.16	0.399	0.338	0.412	0.418	0.444	0.322	0.382	0.297
NCI-H460	0.411	0.257	0.405	0.29	0.0661	0.0571	0.0621	0.0636	1.1	1.03	0.916	0.824	0.158	0.125	0.201	0.14	0.604	0.557	0.501	0.217
NCI-H1993	0.574	0.541	0.568	0.538	0.482	0.565	0.633	0.577	1.3	0.925	1.01	0.83	0.716	0.666	0.712	0.556	0.6	0.479	0.543	0.531
ChaGo-K-1	0.225	0.242	0.231	0.211	0.272	0.247	0.26	0.267	1.27	1.06	1.05	0.939	0.898	0.889	0.933	0.98	0.658	0.572	0.618	0.449
HCC-15	0.461	0.255	0.297	0.188	0.224	0.207	0.221	0.2	1.09	1.01	1.14	1.2	0.748	0.694	0.734	0.745	0.701	0.617	0.623	0.582
NCI-H23	0.446	0.304	0.357	0.368	0.73	0.541	0.666	0.45	1.2	0.871	1.01	0.929	0.492	0.445	0.53	0.461	0.601	0.448	0.593	0.457
NCI-H1395	0.774	0.709	0.79	0.7	1.04	0.768	0.917	0.782					0.657	0.579	0.63	0.553	0.653	0.647	0.662	0.597
NCI-H1666	0.653	0.571	0.582	0.503	0.85	0.825	0.747	0.808	0.857	0.751	0.806	0.733	0.659	0.608	0.606	0.726	0.885	0.785	0.929	0.759
NCI-H2405	0.764	0.613	0.726	0.722	1.13	1.04	1.11	1.01	1.01	1.01	1	0.94	0.545	0.538	0.522	0.486	0.652	0.592	0.633	0.56

Cell Line	relative viability ([1]; first compound 0.08 µM)	relative viability ([1]; first compound 0.8 µM)	relative viability ([1]; first compound 2.53 µM)	relative viability ([1]; first compound 8 µM)	relative viability ([2]; first compound 0.08 µM)	relative viability ([2]; first compound 0.8 µM)	relative viability ([2]; first compound 2.53 µM)	relative viability ([2]; first compound 8 µM)	relative viability ([3]; first compound 0.08 µM)	relative viability ([3]; first compound 0.8 µM)	relative viability ([3]; first compound 2.53 µM)	relative viability ([3]; first compound 8 µM)	relative viability ([4]; first compound 0.08 µM)	relative viability ([4]; first compound 0.8 µM)	relative viability ([4]; first compound 2.53 µM)	relative viability ([4]; first compound 8 µM)	relative viability (Ruboxistaurin + OSI-027; first compound 0.08 µM)	relative viability (Ruboxistaurin + OSI-027; first compound 0.8 µM)	relative viability (Ruboxistaurin + OSI-027; first compound 2.53 µM)	relative viability (Ruboxistaurin + OSI-027; first compound 8 µM)
NCI-H2009	0.765	0.678	0.768	0.473	1.05	1.08	1.02	1.07	1.04	0.941	1.14	1.41	0.218	0.234	0.242	0.221	0.735	0.536	0.608	0.548
HCC-78	0.368	0.352	0.321	0.393	0.85	0.91	0.828	0.945	0.711	0.427	0.618	0.397	0.509	0.47	0.497	0.501	0.346	0.335	0.316	0.3
NCI-H2170	0.719	0.737	0.686	0.745	0.274	0.263	0.248	0.303					0.397	0.337	0.371	0.386	0.736	0.599	0.67	0.536
NCI-H1793	0.346	0.242	0.408	0.301	1.13		1.03	0.876					0.302		0.296	0.373	0.262	0.239	0.273	0.265
ABC-1	0.178	0.163	0.184	0.22					0.357	0.339	0.308	0.261	0.953	0.724	0.968	1.05	0.692	0.386	0.481	0.331
NCI-H1703									0.401	0.319	0.382	0.237								
NCI-H2342	0.578	0.56	0.461	0.497	0.793	0.825	0.874	0.817					0.456	0.53	0.512	0.518	0.678	0.672	0.608	0.698
SW 900	0.647	0.499	0.656	0.452	0.479	0.421	0.489	0.491					0.598	0.499	0.681	0.553	0.555	0.5	0.593	0.422
NCI-H522	0.502	0.502	0.563	0.524	1.06	0.791	1.18	1.02					1.06	1.06	1.21	1.25	0.741	0.783	0.909	0.689
NCI-H727	0.69	0.463	0.579	0.536					0.974	0.85	0.986	0.69	0.596	0.688	0.745	0.707	0.764	0.416	0.523	0.448
NCI-H1792					0.845	0.659	0.749	0.584	0.995	0.928	0.915	1.03	0.632	0.617	0.645	0.669	0.798	0.605	0.736	0.625
IA-LM									0.891	0.669	1.1	0.98								
NCI-H358	0.116	0.0986	0.118	0.0882	0.171	0.175	0.177	0.162					0.14	0.128	0.129	0.131	0.95	0.642	0.787	0.471
NCI-H596	0.932	0.8	0.729	0.889	0.542	0.473	0.478	0.444	0.978	0.443	0.932	1					0.811	0.552	0.799	0.508
NCI-H1563					0.831	0.724	0.987	0.656	0.871	0.763	0.933	0.775					0.796	0.748	0.694	0.66

— the supplement of paper PMC10307832
